From patent US8129398B2 (priority 2008, dated 2012)

What follows are compounds tested against T1, HIV-integrase (Human immunodeficiency virus type 1 group M subtype B, UniProt P12497) (assay: HIV-Integrase Inhibition Activity (SPA bead integration assay with P33 labeled target DNA)). Conditions: recombinant integrase, class symbols; read-out: in vitro activity.
T1 construct: Recombinant integrase (0.26 ng) was incubated with the beads
Format: biochemical
In short: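 Biotinylated substrate DNA on streptavidin SPA beads loaded with recombinant integrase (90 min, 37° C), washed, then inhibitor plus 0.1 fmol P33-labeled target DNA added. Reaction stopped with 10 mM EDTA; integration measured as CPM by scintillation, giving IC50 ranks.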
In the case of `CN(CC(F)(F)F)C(=O)C(=O)NC12CCC(CC1)Cn1c2nc(C(=O)NCc2ccc(F)cc2)c(O)c1=O` [Example 50, N′-(2-((4-Fluorobenzyl)carbamoyl)-3-hydroxy-4-oxo-6,7,8,9-tetrahydro-7,10-ethanopyrimido[1,2-a]azepin-10(4H)-yl)-N-methyl-N-(2,2,2-trifluoroethyl)ethanediamide], the IC50 is reported as < 10 nM. `CN(C)C(=O)C(=O)NC12CCC(CC1)Cn1c2nc(C(=O)NCCc2cccs2)c(O)c1=O` [Example 354] was tested, and the IC50 was 10 to 100 nM. In the case of `CN(C)C(=O)C(=O)N(C)C12CCC(CC1)Cn1c2nc(C(=O)NCc2ccc3c(c2)OCO3)c(O)c1=O` [Example 161, N-(2-((1,3-Benzodioxol-5-ylmethyl)carbamoyl)-3-hydroxy-4-oxo-6,7,8,9-tetrahydro-7,10-ethanopyrimido[1,2-a]azepin-10(4H)-yl)-N,N′,N′-trimethylethanediamide], the IC50 is reported as < 10 nM. Work on `CN(C)CC(=O)NC12CCC(CC1)Cn1c2nc(C(=O)NCc2ccc(F)cc2)c(O)c1=O` [Example 29, 10-((N,N-Dimethylglycyl)amino)-N-(4-fluorobenzyl)-3-hydroxy-4-oxo-4,6,7,8,9,10-hexahydro-7,10-ethanopyrimido[1,2-a]azepine-2-carboxamide] yielded an IC50 of 10 to 100 nM. `CN(C)C(=O)C(=O)NC12CCC(CC1)Cn1c2nc(C(=O)NCc2cc(Cl)cc(Cl)c2)c(O)c1=O` [Example 383] was tested, and the IC50 was < 10 nM. With `Cc1cnnn1-c1cc(F)ccc1CNC(=O)c1nc2n(c(=O)c1O)CC1CCC2(NC(=O)C(=O)N(C)C)CC1` [Example 106, N′-(2-((4-Fluoro-2-(5-methyl-1H-1,2,3-triazol-1-yl)benzyl)carbamoyl)-3-hydroxy-4-oxo-6,7,8,9-tetrahydro-7,10-ethanopyrimido[1,2-a]azepin-10(4H)-yl)-N,N-dimethylethanediamide] the IC50 was 10 to 100 nM. For `CS(=O)(=O)N1CCCC1C(=O)NC12CCC(CC1)Cn1c2nc(C(=O)NCc2ccc(F)cc2)c(O)c1=O` (stereo in doubt) [Example 254, 7,10-Ethanopyrimido[1,2-a]azepine-2-carboxamide, N-[(4-fluorophenyl)methyl]-4,6,7,8,9,10-hexahydro-3-hydroxy-10-[[[(2R)-1-(methylsulfonyl)-2-pyrrolidinyl]carbonyl]amino]-4-oxo-], the IC50 was < 10 nM. With `CNC(=S)NC12CCC(CC1)Cn1c2nc(C(=O)NCc2ccc(F)cc2)c(O)c1=O` [Example 331, 7,10-Ethanopyrimido[1,2-a]azepine-2-carboxamide, N-[(4-fluorophenyl)methyl]-4,6,7,8,9,10-hexahydro-3-hydroxy-10-[[(methylamino)thioxomethyl]amino]-4-oxo-] the IC50 was < 10 nM. In the case of `CN(C)C(=O)C(=O)NC12CCC(CC1)Cn1c2nc(C(=O)NCc2ccc(F)cc2C(F)(F)F)c(O)c1=O` [Example 121, N′-(2-((4-Fluoro-2-(trifluoromethyl)benzyl)carbamoyl)-3-hydroxy-4-oxo-6,7,8,9-tetrahydro-7,10-ethanopyrimido[1,2-a]azepin-10(4H)-yl)-N,N-dimethylethanediamide], the IC50 is reported as < 10 nM. `Cc1ccccc1CNC(=O)c1nc2n(c(=O)c1O)CC1CCC2(NC(=O)C(=O)N(C)C)CC1` [Example 370] was tested, and the IC50 was < 10 nM. `CN(C)C(=O)C(=O)NC12CCC(CC1)Cn1c2nc(C(=O)NCc2ccccc2F)c(O)c1=O` [Example 367] was tested, and the IC50 was < 10 nM. For `Cc1cc(CNC(=O)c2nc3n(c(=O)c2O)CC[C@H]2CC[C@]3(NC(=O)C(=O)N(C)C)C2)ccc1F` [Example 416, Ethanediamide, N′-[(8R,11S)-2-[[[(4-fluoro-3-methylphenyl)methyl]amino]carbonyl]-7,8,9,10-tetrahydro-3-hydroxy-4-oxo-8,11-methano-4H-pyrimido[1,2-a]azocin-11(6H)-yl]-N,N-dimethyl-], the IC50 was < 10 nM. For `CNC(=O)N1CCCC1C(=O)NC12CCC(CC1)Cn1c2nc(C(=O)NCc2ccc(F)cc2)c(O)c1=O` (centres unmarked) [Example 401], the IC50 was < 10 nM. In the case of `Cn1cc(C(=O)NC23CCC(CC2)Cn2c3nc(C(=O)NCc3ccc(F)cc3)c(O)c2=O)cn1` [Example 246, 7,10-Ethanopyrimido[1,2-a]azepine-2-carboxamide, N-[(4-fluorophenyl)methyl]-4,6,7,8,9,10-hexahydro-3-hydroxy-10-[[(1-methyl-1H-pyrazol-4-yl)carbonyl]amino]-4-oxo-], the IC50 is reported as < 10 nM. In the case of `CN1CCN(C(=O)C(=O)NC23CCC(CC2)Cn2c3nc(C(=O)NCc3ccc(F)cc3)c(O)c2=O)CC1` [Example 71, N-(4-Fluorobenzyl)-3-hydroxy-10-(((4-methyl-1-piperazinyl)(oxo)acetyl)amino)-4-oxo-4,6,7,8,9,10-hexahydro-7,10-ethanopyrimido[1,2-a]azepine-2-carboxamide], the IC50 is reported as < 10 nM. With `CN(C)C(=O)C(=O)NC12CCC(CC1)Cn1c2nc(C(=O)NCc2ccc(F)cc2Cl)c(O)c1=O` [Example 118, N′-(2-((2-Chloro-4-fluorobenzyl)carbamoyl)-3-hydroxy-4-oxo-6,7,8,9-tetrahydro-7,10-ethanopyrimido[1,2-a]azepin-10(4H)-yl)-N,N-dimethylethanediamide] the IC50 was < 10 nM. For `CN(C)C(=O)N1CCN(C(=O)C(=O)NC23CCC(CC2)Cn2c3nc(C(=O)NCc3ccc(F)cc3)c(O)c2=O)CC1` [Example 80, 10-(((4-(Dimethylcarbamoyl)-1-piperazinyl)(oxo)acetyl)amino)-N-(4-fluorobenzyl)-3-hydroxy-4-oxo-4,6,7,8,9,10-hexahydro-7,10-ethanopyrimido[1,2-a]azepine-2-carboxamide], the IC50 was < 10 nM. With `Cn1nccc1C(=O)NC12CCC(CC1)Cn1c2nc(C(=O)NCc2ccc(F)cc2)c(O)c1=O` [Example 247, 7,10-Ethanopyrimido[1,2-a]azepine-2-carboxamide, N-[(4-fluorophenyl)methyl]-4,6,7,8,9,10-hexahydro-3-hydroxy-10-[[(1-methyl-1H-pyrazol-5-yl)carbonyl]amino]-4-oxo-] the IC50 was < 10 nM. With `Cc1cc(C(=O)NC23CCC(CC2)Cn2c3nc(C(=O)NCc3ccc(F)cc3)c(O)c2=O)no1` [Example 28, N-(4-Fluorobenzyl)-3-hydroxy-10-(((5-methyl-3-isoxazolyl)carbonyl)amino)-4-oxo-4,6,7,8,9,10-hexahydro-7,10-ethanopyrimido[1,2-a]azepine-2-carboxamide] the IC50 was < 10 nM. With `CC(C)N(C)C(=O)C(=O)NC12CCC(CCn3c1nc(C(=O)NCc1ccc(F)cc1)c(O)c3=O)C2` (centres unmarked) [Example 206, Ethanediamide, N′-[2-[[[(4-fluorophenyl)methyl]amino]carbonyl]-7,8,9,10-tetrahydro-3-hydroxy-4-oxo-8,11-methano-4H-pyrimido[1,2-a]azocin-11(6H)-yl]-N-methyl-N-(1-methylethyl)-] the IC50 was < 10 nM. With `CCOC(=O)[C@@H]1CCCN1C(=O)C(=O)NC12CCC(CC1)Cn1c2nc(C(=O)NCc2ccc(F)cc2)c(O)c1=O` [Example 92, Ethyl 1-(((2-((4-fluorobenzyl)carbamoyl)-3-hydroxy-4-oxo-6,7,8,9-tetrahydro-7,11-ethanopyrimido[1,2-a]azepin-10(4H)-yl)amino) (oxo)aceyl)-L-prolinate] the IC50 was < 10 nM. `COc1ccc(CCNC(=O)c2nc3n(c(=O)c2O)CC2CCC3(NC(=O)C(=O)N(C)C)CC2)cc1` [Example 346] was tested, and the IC50 was > 100 nM. `CO[C@H]1C[C@@H](C(=O)NC23CCC(CC2)Cn2c3nc(C(=O)NCc3ccc(F)c(C)c3)c(O)c2=O)N(C(=O)c2cc(C)n(C)n2)C1` [Example 295, 7,10-Ethanopyrimido[1,2-a]azepine-2-carboxamide, 10-[[[(2S,4S)-1-[(1,5-dimethyl-1H-pyrazol-3-yl)carbonyl]-4-methoxy-2-pyrrolidinyl]carbonyl]amino]-N-[(4-fluoro-3-methylphenyl)methyl]-4,6,7,8,9,10-hexahydro-3-hydroxy-4-oxo-] was tested, and the IC50 was < 10 nM. In the case of `Cc1cc(CNC(=O)c2nc3n(c(=O)c2O)CC2CCC3(NC(=O)Nc3ccccn3)CC2)ccc1F` [Example 325, 7,10-Ethanopyrimido[1,2-a]azepine-2-carboxamide, N-[(4-fluoro-3-methylphenyl)methyl]-4,6,7,8,9,10-hexahydro-3-hydroxy-4-oxo-10-[[(2-pyridinylamino)carbonyl]amino]-], the IC50 is reported as < 10 nM. `CN(C)C(=O)C(=O)NC12CCC(CC1)Cn1c2nc(C(=O)NCC2CCCO2)c(O)c1=O` (centres unmarked) [Example 338] was tested, and the IC50 was > 100 nM. In the case of `O=C(Nc1ccccn1)NC12CCC(CC1)Cn1c2nc(C(=O)NCc2ccc(F)cc2)c(O)c1=O` [Example 324, 7,10-Ethanopyrimido[1,2-a]azepine-2-carboxamide, N-[(4-fluorophenyl)methyl]-4,6,7,8,9,10-hexahydro-3-hydroxy-4-oxo-10-[[(2-pyridinylamino)carbonyl]amino]-], the IC50 is reported as < 10 nM. For `O=C(NC12CCC(Cn3c1nc(C(=O)NCc1ccc(F)c(Cl)c1)c(O)c3=O)C2)OCc1ccccc1` (centres unmarked) [Example 194, Carbamic acid, [2-[[[(3-chloro-4-fluorophenyl)methyl]amino]carbonyl]-6,7,8,9-tetrahydro-3-hydroxy-4-oxo-7,10-methanopyrimido[1,2-a]azepin-10(4H)-yl]-, phenylmethyl ester], the IC50 was < 10 nM. In the case of `Cc1ncnn1-c1cc(F)ccc1CNC(=O)c1nc2n(c(=O)c1O)CC1CCC2(NS(C)(=O)=O)CC1` [Example 39, N-(4-Fluoro-2-(5-methyl-1H-1,2,4-triazol-1-yl)benzyl)-3-hydroxy-10-((methylsulfonyl)amino)-4-oxo-4,6,7,8,9,10-hexahydro-7,10-ethanopyrimido[1,2-a]azepine-2-carboxamide], the IC50 is reported as < 10 nM. In the case of `CS(=O)(=O)N1[C@@H]2C[C@@H]2C[C@H]1C(=O)NC12CCC(CC1)Cn1c2nc(C(=O)NCc2ccc(F)cc2)c(O)c1=O` [Example 294, 7,10-Ethanopyrimido[1,2-a]azepine-2-carboxamide, N-[(4-fluorophenyl)methyl]-4,6,7,8,9,10-hexahydro-3-hydroxy-10-[[[(1R,3S,5R)-2-(methylsulfonyl)-2-azabicyclo[3.1.0]hex-3-yl]carbonyl]amino]-4-oxo-], the IC50 is reported as < 10 nM.
